Reference: US7199129B2, “Derivatives of morphine-like opioid compounds” (Monash University, priority 2001, dated 2007)
“And” between values parts separate entries of the source, which are not always exact repeats. Identical values can stand only once.

Assays:
human δ-opiate receptor = biological target: T1, human δ-opiate receptor (Homo sapiens, UniProt P41143); assay: In vitro opiate receptor radioligand binding assay, δ; details: test compound 10 μM
T1 construct: purchased MDS Pharma Services 260110
T1 sequence (P41143 whole entry): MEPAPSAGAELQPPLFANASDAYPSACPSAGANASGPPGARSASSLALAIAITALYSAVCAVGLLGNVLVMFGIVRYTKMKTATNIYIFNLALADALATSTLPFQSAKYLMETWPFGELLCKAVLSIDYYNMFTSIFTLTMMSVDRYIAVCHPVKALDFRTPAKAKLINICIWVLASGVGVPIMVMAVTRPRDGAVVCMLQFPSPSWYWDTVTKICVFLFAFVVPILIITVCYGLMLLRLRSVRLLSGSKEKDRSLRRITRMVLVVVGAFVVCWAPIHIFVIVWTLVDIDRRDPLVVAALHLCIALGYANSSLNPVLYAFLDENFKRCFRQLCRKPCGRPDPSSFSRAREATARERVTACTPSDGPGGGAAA
Protocol: To characterise the target specificity of the compounds, KRS-5-150 and KRS-6-26 were tested at a concentration of 10 μM for their ability to inhibit the binding of a radioligand to human δ-, κ-, or μ-opiate receptors in vitro using commercially available assays (MDS Pharma Services; assay catalogue numbers 260110, 260210 and 260410 respectively).
Percentage inhibition of radioligand binding to human opioid receptors in vitro by test compounds (10 μM)

ICR mice = assay: Phenylquinone-induced writhing model in mice (Example 16); type: in vivo; details: IP; for No. of Writhings Individual: individual mice
Protocol: KRS-5-150 was evaluated for possible analgesic activity in the phenylquinone-induced writhing model in mice (Siegmund et al, 1957). A serial 2-fold dosage variance was used in the test, from 128 mg/kg to 1 mg/kg (8 doses in total). Groups of 3 male or female ICR mice weighing 22±2 g were employed. A serial 2-fold dosage variance was used in the test (8 doses in total). Variant doses (1, 2, 4, 8, 16, 32, 64 and 128 mg/kg) of test substances were administered intraperitoneally (IP). A vehicle of 2% Tween 80 in 0.9% NaCl was used for the intraperitoneal injection. The control group received vehicle alone. […] A reduction in the number of writhes by 50 percent or more (≧50%) relative to the vehicle-treated group indicated possible analgesic activity.

SMILES: Oc1ccc2c3c1O[C@H]1[C@@H](O)C=C[C@H]4[C@@H](C2)N(CCCNC(=Nc2ccccc2)Nc2ccccc2)CC[C@@]341 [KRS-5-150, (5α,6α)-7,8 didehydro-4,5-epoxy-17-(N,N′-bisphenylcarboxamidino-3-aminopropyl)morphinan,3,6-diol]
- Percentage inhibition of radioligand binding, δ-opiate receptor (human δ-opiate receptor): 79%
- % Inhibition (ICR mice; 1 mg/kg, Table 1): 33%
- No. of Writhings Average (ICR mice; 1 mg/kg, Table 1): 10
- No. of Writhings Individual (ICR mice; 1 mg/kg, Table 1): 14 and 0 and 16
- % Inhibition (ICR mice; 2 mg/kg, Table 1): 73%
- No. of Writhings Average (ICR mice; 2 mg/kg, Table 1): 4
- No. of Writhings Individual (ICR mice; 2 mg/kg, Table 1): 8 and 1 and 4
- % Inhibition (ICR mice; 4 mg/kg, Table 1): 80%
- No. of Writhings Average (ICR mice; 4 mg/kg, Table 1): 3
- No. of Writhings Individual (ICR mice; 4 mg/kg, Table 1): 0 and 7 and 3
- % Inhibition (ICR mice; 8 mg/kg, Table 1): 87%
- No. of Writhings Average (ICR mice; 8 mg/kg, Table 1): 2
- No. of Writhings Individual (ICR mice; 8 mg/kg, Table 1): 4 and 0 and 2
- % Inhibition (ICR mice; 16 mg/kg, Table 1): 80%
- No. of Writhings Average (ICR mice; 16 mg/kg, Table 1): 3
- No. of Writhings Individual (ICR mice; 16 mg/kg, Table 1): 0 and 4 and 5
- % Inhibition (ICR mice; 32 mg/kg, Table 1): 100%
- No. of Writhings Average (ICR mice; 32 mg/kg, Table 1): 0
- No. of Writhings Individual (ICR mice; 32 mg/kg, Table 1): 0 (2×) and 1
- % Inhibition (ICR mice; 64 mg/kg, Table 1): 100%
- No. of Writhings Average (ICR mice; 64 mg/kg, Table 1): 0
- No. of Writhings Individual (ICR mice; 64 mg/kg, Table 1): 0
- died (animals of group of 3) (ICR mice; 128 mg/kg, Table 1): 2/3 died
- No. of Writhings Individual (ICR mice; 128 mg/kg, Table 1): 0
- analgesic activity (≧50% reduction in writhes) (ICR mice; doses of 64, 32, 16, 8, 4 and 2 mg/kg): Significant activity
